Usually Tmax stands for the time at which the peak concentration occurs. By AUC(0-inf) is commonly meant the area under the concentration-time curve extrapolated to infinity. Broadly, the CL/F is the apparent clearance, not corrected for the fraction that reaches the circulation. One may read the Cmax as the peak of the concentration-time curve. For orientation: Vd/F means the volume of distribution divided by bioavailability. Usually half-life stands for the time needed for the level to fall by half in the phase considered. High values mean slow decline, low ones rapid decline.

Data set [1] is described as follows: Serum pharmacokinetics after a single oral dose (24 h study), LC-MS/MS, noncompartmental analysis. The class given is in vivo, Sprague Dawley rats. The method, then: Twenty eight adult male Sprague Dawley rats (8 weeks old; 250-300 g; Charles River, United States) were used in the study. Animals were housed in individual cages with a 12-h light–dark cycle in an enriched environment. The experiments were conducted after 2–3 days of acclimatization as per the approved protocols by the Institutional Animal Care and Use Committees (IACUC protocol: 21–109) and complied with the NIH ARRIVE Guidelines for the Care and Use of Laboratory Animals. Blood sampling was done by retro-orbital puncture as per IACUC protocol. Maximal blood collection was limited to less than 7.5% of the […] in one week. The serum was separated by centrifugation at 1,000–1,500 × g for 10 min and stored at −80°C until further analysis. All animals were euthanized at the end of the study with pentobarbital sodium and phenytoin sodium (100 mg/kg, i.p.) as per the American Veterinary Medical Association Guidelines for euthanasia. Tissue samples were collected and stored at −80°C until further analysis.
(§1) The animals were randomized into four experimental groups (n = 4–8). In group 1 (24 h study; Figure 1A), eight animals received a single oral gavage of saracatinib (20 mg/kg), and the blood sampling was done at 0.5, 1, 2, 4, 6, 8, 12, and 24 h post-treatment. Four animals each were euthanized at 4 h and 24 h, respectively. In group 2 (7-day repeated oral dosing study; Figure 1B), eight animals received repeated daily oral dosing of saracatinib (20 mg/kg of rat) at 24 h intervals; the blood sampling was done daily at 24 h intervals before the next dosing. Four animals were euthanized 24 h after the third repeated oral dosing, i.e., day 3 and the other four animals were euthanized at day 7. Group 3 (7-day SAR-in-Diet study; Figure 1C), received a single oral gavage of saracatinib (20 mg/kg of rat) followed by 24 h later SAR-in-Diet for 7 days (260 ppm). The blood sampling was done at 24 h post oral and daily at 24 h intervals for 7 days while the animals were on SAR-in-Diet. Four animals each were euthanized on day 3 and 7. Group 4 (Figure 1D) included four animals that were given 7 repeated doses of oral saracatinib (20 mg/kg/day for a week) followed by ad-libitum SAR-in-Diet at varying concentrations fed for up to 18 weeks (260 ppm diet for 2 weeks, 210 ppm diet for a week, 160 ppm for 4 weeks, and 50 ppm diet for 11 weeks) The tapering concentrations of saracatinib in the diet from 260 to 50 ppm was done to target a daily saracatinib dose rate in the range of 20–5 mg/kg respectively, in a 24 h feeding cycle. Blood samples were collected at the end of each diet change.
Samples were submitted to the W.M. Keck Metabolomics Research Laboratory (Office of Biotechnology, Iowa State University, Ames, IA) for targeted saracatinib LC–MS/MS quantification. Serum and hippocampus preparations were conducted using a modified version of the previously available extraction and sample preparation methods previously established ([18], [19]). 50–75 μL or 50–75 mg wet weight of each sample was added to microcentrifuge tubes. A Reagent control sample was generated for each sample batch, 75 μL of 0.9% NaCl which was extracted in the same fashion as the samples. The weighed samples were then spiked with the internal standard, 1.25 μg of S-Hexylglutathione (Sigma-Aldrich CO., St. Louis, MO), added as 10 μL of from a 0.125 mg/mL solution in LC–MS grade 9:1 methanol: acetonitrile (Fisher Scientific, Waltham, MA). The extraction was initiated by the addition of 0.4 mL of 90% ice-cold LC–MS grade methanol with 10% LC–MS grade water (Fisher Scientific, Waltham, MA). For the hippocampus samples, after adding the 90% methanol to the samples, two 2.4 mm metal beads were added to each sample, the tissue was then homogenized using a Bead Mill 24 Homogenizer (Thermo Fisher Scientific, Inc., Waltham, MA, United States). […]

Data set [2] is described as follows: Hippocampal concentrations after a single oral dose (24 h study). The class given is in vivo, Sprague Dawley rats. As to conditions: single oral dose 20 mg/kg. As for the experimental part:
as §1
(§2) Samples were submitted to the W.M. Keck Metabolomics Research Laboratory (Office of Biotechnology, Iowa State University, Ames, IA) for targeted saracatinib LC–MS/MS quantification. Serum and hippocampus preparations were conducted using a modified version of the previously available extraction and sample preparation methods previously established ([18], [19]). 50–75 μL or 50–75 mg wet weight of each sample was added to microcentrifuge tubes. […]

Data set [3] can be described thus: 7-day repeated daily oral dosing study: serum and hippocampal concentrations. The data set is classed as in vivo, Sprague Dawley rats. As for the experimental part: as §1, §2
Data set [4] can be described thus: Stability at room temperature in solution or in diet by LC-MS/MS. The data set is classed as physicochemical. The method, then:
Samples were submitted to the W.M. Keck Metabolomics Research Laboratory (Office of Biotechnology, Iowa State University, Ames, IA) for targeted saracatinib LC–MS/MS quantification. One or two food pellets (1.5–3 g) were homogenized by mortar-and-pestle before being transferred and weighed in glass tubes with Teflon-lined screw caps. A reagent control sample was generated for each sample batch which was prepared in the same fashion as the samples. The weighed samples were then spiked with the internal standard, 250 μg of S-Hexylglutathione (Sigma-Aldrich CO., St. Louis, MO), added as 1.0 mL of from a 0.25 mg/mL solution in LC–MS grade 9:1 methanol: acetonitrile (Fisher Scientific, Waltham, MA). The extraction was initiated by the addition of 8 mL of 90% LC–MS grade methanol with 10% LC–MS grade water (Fisher Scientific, Waltham, MA). […]
LC separations were performed with an Agilent Technologies 1,290 Infinity Binary Pump UHPLC instrument equipped with an Agilent Technologies Eclipse C18 1.8 μm 2.1 mm × 100 mm analytical column that was coupled to an Agilent Technologies 6,540 UHD Accurate-Mass Q-TOF mass spectrometer (Agilent Technologies, Santa Clara, CA). […] Saracatinib was detected using electrospray ionization in positive ionization mode. […] During LC–MS data acquisition, reference masses were monitored for continuous mass calibration: m/z 121.050873 with m/z 922.009698. […]

On the set-up of data set [5]: method as in PMID 19775203. As to conditions: healthy humans, 250 mg/day once daily for 10–14 days; cited from earlier work.
The subject of data set [6] is kainate (KA) model of temporal lobe epilepsy. Set-up: method as in PMID 34087381. As to conditions: treating for a week, repeated oral dosing; cited from earlier work.
The test system of data set [7] is organophosphate (OP) induced epilepsy models. Set-up: method as in PMID 35052568. As to conditions: treatment for a week; cited from earlier work.
Another data set deals with ABCB1. Set-up: method as in PMID 22623106. As to conditions: cited from earlier work.
Where [8] appears, read: male, Sprague Dawley, single oral dose 20 mg/kg, rat serum, median, n=4.

Regarding `CN1CCN(CCOc2cc(OC3CCOCC3)c3c(Nc4c(Cl)ccc5c4OCO5)ncnc3c2)CC1` [saracatinib, Saracatinib], the “Time saracatinib was detected in the serum” value in data set [1] (after a single oral dose 20 mg/kg) is recorded as “up to 24 h”. Moreover, the Tmax in data set [1] (male, Sprague Dawley, rat, serum, po, 20 mg/kg, single oral dose 20 mg/kg, rat serum, median, n=4) is 6 h. The AUC(0-t) in data set [1] (male, Sprague Dawley, single oral dose 20 mg/kg, rat serum, 0 to 24 h, median, n=4, read-out: AUC (0-tlast)) turned out to be 6990 ng·h/mL. In data set [1] (setting [8]), this compound had an AUC(0-inf) of 7060 ng·h/mL, a CL/F of 47.2 mL/min/kg, a maximum concentration (Cmax) of 954 ng/mL and a Vd/F of 15.6 L/kg. In data set [1] (setting [8]), the half-life was 4.12 h and the k el was 5e-05 s⁻¹. In addition, the concentration at 4 h in data set [2] (male, Sprague Dawley, rat, hippocampus, 4 h, read-out: Hippocampal level) is more than 500 ng/g. Besides, the “Hippocampal versus serum concentrations” value in data set [2] (4 h and 24 h) is “higher than the serum concentrations”. Moreover, the “Hippocampal concentration at 24 h compared to 4 h” value in data set [2] (24 h) was “dropped to nearly half”. Moreover, the concentration at 3 day in data set [3] (male, Sprague Dawley, rat, hippocampus, repeated oral dosing 20 mg/kg/day, day 3, read-out: Hippocampal saracatinib concentration) is 239 ± 143 ng/g. In data set [3] (male, Sprague Dawley, rat, hippocampus, repeated oral dosing 20 mg/kg/day, day 7, read-out: Hippocampal saracatinib concentration), the concentration at 7 day came out at 271 ± 62.3 ng/g. For the same compound, the “Serum saracatinib concentration (trough, 24 h after dose)” value in data set [3] (repeated daily oral dosing 20 mg/kg, first three days) was ~ 100 ng/mL. Further, the “Time stable at room temperature” value in data set [4] is on record as more than 4 weeks. Moreover, the “Stability at room temperature (percent)” value in data set [4] (>4 weeks) is given as 97 ± 1.56%. Further, in data set [5], the T1/2 is on record as 40 h and the Tolerability result is given as “well tolerated”. Moreover, the “Long-term effects (reactive gliosis, neurodegeneration, epileptiform spiking, spontaneously recurring seizures)” value in data set [6] is listed as “sufficient to mitigate long-term effects”. Besides, the Protective effects entry in data set [7] was “limited”. Also, in the data set on ABCB1, the “Effect on ABCB1” value is recorded as “only inhibits ABCB1 transport function, without altering ABCB1 expression or AKT phosphorylation”.

Values taken from paper PMC10666625, “Exploring the benefits of in-diet versus repeated oral dosing of saracatinib (AZD0530) in chronic studies: insights into pharmacokinetics and animal welfare” (Frontiers in Veterinary Science, 2023).
